viability, T/C and IC50 data for four molecules are collected here from PubChem BioAssay AID1845216 (Molecular Pharmacology Branch, DTP, NCI, 2023).

The assay concerns SW 982 tumor spheroid viability. The assay can be described thus: Anticancer human tumor SW 982 cell line growth inhibition.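 As to all read-outs here: spheroids exposed to compound for 7 days before readout.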 The conditions noted are these: spheroids with HUVEC and MSC; for viability, T/C: stronger effect = lower value. The method, boiled down: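 Complex spheroids of malignant cells with endothelial cells and mesenchymal stem cells; agents alone or combined, from near clinical Cmax (or 10 microM if unknown) down in half-log steps, 0.25% DMSO final.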

Where [1] appears, read: curve of first compound, second compound 30 pM.
Where [2] appears, read: curve of first compound, second compound 94.9 pM.
Where [3] appears, read: curve of first compound, second compound 0.0003 µM.
[4] abbreviates: curve of first compound, second compound 0.000949 µM.
Setting [5] is: curve of first compound, second compound 0.003 µM.

For orientation: viability, T/C means the ratio of treated to control. Broadly, the IC50 is the concentration at which inhibition is half-maximal.

Values joined by “and” are separate entries in the source; they are usually repeats but may differ in a detail not shown here. Equal entries are not always repeated.

On to `CC1COCCN1c1cc(-c2ccnn2C)c2ccnc(-c3ccn[nH]3)c2n1` (centres undefined), for which the viability, T/C is 27.4% and 44.4% and 38.4% (compound 0.0316 µM); 20.4% and 25.4% and 17.1% (compound 0.1 µM); 16.2% and 17.9% and 12.3% (compound 0.316 µM); 13.2% and 15.2% and 10.5% (compound 1 µM); 20% and 15.6% and 11% (compound 3.16 µM); 22.1% and 22.6% and 14.1% (compound 10 µM). The concentration for half-maximal inhibition (IC50) (curve of compound) is < 31.6 nM.

For the molecule `O=C(c1cc(Cc2n[nH]c(=O)c3ccccc23)ccc1F)N1CCN(C(=O)C2CC2)CC1` + COc1cc2c(cc1O)CCNC21CSC2c3c(OC(C)=O)c(C)c4c(c3C(COC1=O)N1C(O)C3Cc5cc(C)c(OC)c(O)c5C(C21)N3C)OCO4, the IC50 under setting [1] turned out to be 7800 nM; the half-inhibitory concentration (IC50) under setting [2] is 16300 nM; the half-inhibitory concentration (IC50) under setting [3] amounted to 7270 nM; the IC50 under setting [4] was < 94.9 nM; the IC50 under setting [5] is < 94.9 nM. Further, the viability, T/C reads like this: (second compound 30 pM, first compound 0.0949 µM) 96.8%; (second compound 30 pM, first compound 0.3 µM) 93.2%; (second compound 30 pM, first compound 0.949 µM) 97.8%; (second compound 30 pM, first compound 3 µM) 71.7%; (second compound 30 pM, first compound 9.49 µM) 47.4%; (second compound 30 pM, first compound 30 µM) 38.8%. For the same molecule, the viability, T/C was 93.1% (second compound 94.9 pM, first compound 0.0949 µM); 91.4% (second compound 94.9 pM, first compound 0.3 µM); 92.6% (second compound 94.9 pM, first compound 0.949 µM); 76.2% (second compound 94.9 pM, first compound 3 µM); 59.8% (second compound 94.9 pM, first compound 9.49 µM); 39.9% (second compound 94.9 pM, first compound 30 µM). Moreover, the viability, T/C (second compound 0.0003 µM, first compound 0.0949 µM) is 74.4%; the viability, T/C (second compound 0.0003 µM, first compound 0.3 µM) was 80.7%; the viability, T/C (second compound 0.0003 µM, first compound 0.949 µM) is 70.5%; the viability, T/C (second compound 0.0003 µM, first compound 3 µM) is 70.8%; the viability, T/C (second compound 0.0003 µM, first compound 9.49 µM) was 43.8%; the viability, T/C (second compound 0.0003 µM, first compound 30 µM) is 28.1%. The viability, T/C was 32.8% (second compound 0.000949 µM, first compound 0.0949 µM); 27.3% (second compound 0.000949 µM, first compound 0.3 µM); 26.8% (second compound 0.000949 µM, first compound 0.949 µM); 18.3% (second compound 0.000949 µM, first compound 3 µM); 11.1% (second compound 0.000949 µM, first compound 9.49 µM); 2.5% (second compound 0.000949 µM, first compound 30 µM). The viability, T/C by setting is: (second compound 0.003 µM, first compound 0.0949 µM) 0.52%; (second compound 0.003 µM, first compound 0.3 µM) 0.45%; (second compound 0.003 µM, first compound 0.949 µM) 0.51%; (second compound 0.003 µM, first compound 3 µM) 0.63%; (second compound 0.003 µM, first compound 9.49 µM) 0.83%; (second compound 0.003 µM, first compound 30 µM) 1.26%.

`Cc1sc2c(c1C)C(c1ccc(Cl)cc1)=NC(CC(=O)Nc1ccc(O)cc1)c1nnc(C)n1-2` (centres undefined): the viability, T/C is 102% (2×) and 124% (compound 0.00949 µM); 105% and 104% and 90.7% (compound 0.03 µM); 79.4% and 83.4% and 72.8% (compound 0.0949 µM); 48.1% and 59.7% and 50.1% (compound 0.3 µM); 35.9% and 35.4% and 29.1% (compound 0.949 µM); 29.3% and 33.5% and 24.2% (compound 3 µM). For the same molecule, the IC50 (curve of compound) is 277 nM and 490 nM and 282 nM.

In the case of `COc1cc(C)[nH]c(=O)c1CN1CCc2c(Cl)cc(C(OC)C3COC3)c(Cl)c2C1=O` (centres undefined) + COc1cc2c(cc1O)CCNC21CSC2c3c(OC(C)=O)c(C)c4c(c3C(COC1=O)N1C(O)C3Cc5cc(C)c(OC)c(O)c5C(C21)N3C)OCO4, the half-maximal inhibitory concentration (IC50) is > 10000 nM under setting [1]; > 10000 nM under setting [2]; > 10000 nM under setting [3]; < 31.6 nM under setting [4]; < 31.6 nM under setting [5]. Moreover, the viability, T/C reads like this: (second compound 30 pM, first compound 0.0316 µM) 98.5%; (second compound 30 pM, first compound 0.1 µM) 107%; (second compound 30 pM, first compound 0.316 µM) 90.2%; (second compound 30 pM, first compound 1 µM) 97.7%; (second compound 30 pM, first compound 3.16 µM) 102%; (second compound 30 pM, first compound 10 µM) 107%. Further, the viability, T/C (second compound 94.9 pM, first compound 0.0316 µM) was 90.5%; the viability, T/C (second compound 94.9 pM, first compound 0.1 µM) is 95.6%; the viability, T/C (second compound 94.9 pM, first compound 0.316 µM) was 95.7%; the viability, T/C (second compound 94.9 pM, first compound 1 µM) was 103%; the viability, T/C (second compound 94.9 pM, first compound 3.16 µM) was 99.8%; the viability, T/C (second compound 94.9 pM, first compound 10 µM) is 91.7%. Also, the viability, T/C is, setting by setting: (second compound 0.0003 µM, first compound 0.0316 µM) 86.9%; (second compound 0.0003 µM, first compound 0.1 µM) 82.9%; (second compound 0.0003 µM, first compound 0.316 µM) 89.1%; (second compound 0.0003 µM, first compound 1 µM) 91.3%; (second compound 0.0003 µM, first compound 3.16 µM) 84.7%; (second compound 0.0003 µM, first compound 10 µM) 85.3%. The viability, T/C runs as follows: (second compound 0.000949 µM, first compound 0.0316 µM) 38.3%; (second compound 0.000949 µM, first compound 0.1 µM) 48.7%; (second compound 0.000949 µM, first compound 0.316 µM) 38%; (second compound 0.000949 µM, first compound 1 µM) 45.6%; (second compound 0.000949 µM, first compound 3.16 µM) 47.3%; (second compound 0.000949 µM, first compound 10 µM) 28.3%. In addition, the viability, T/C runs as follows: (second compound 0.003 µM, first compound 0.0316 µM) 0.42%; (second compound 0.003 µM, first compound 0.1 µM) 0.99%; (second compound 0.003 µM, first compound 0.316 µM) 0.77%; (second compound 0.003 µM, first compound 1 µM) 0.49%; (second compound 0.003 µM, first compound 3.16 µM) 0.64%; (second compound 0.003 µM, first compound 10 µM) 1.1%.
